According to PubChem BioAssay (NCI):
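The concentration for 50% growth inhibition is given as GI50. TGI marks complete inhibition of growth.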

Experiments:
Assay in all cases: NCI tumour cell line growth inhibition, 384-well format
COLO 205 colon = system: COLO 205 colon
MDA-MB-468 breast = system: MDA-MB-468 breast
UACC-257 melanoma = system: UACC-257 melanoma
PC-3 prostate = system: PC-3 prostate
NCI-H460 NSCLC = system: NCI-H460 NSCLC
OVCAR-3 ovarian = system: OVCAR-3 ovarian
786-0 renal = system: 786-0 renal
SF-295 CNS = system: SF-295 CNS
HCC-2998 colon = system: HCC-2998 colon
SNB-75 CNS = system: SNB-75 CNS
HCT-15 colon = system: HCT-15 colon
SK-MEL-28 melanoma = system: SK-MEL-28 melanoma
HS 578T breast = system: HS 578T breast
SK-MEL-5 melanoma = system: SK-MEL-5 melanoma
SNB-19 CNS = system: SNB-19 CNS
NCI-H23 lung = system: NCI-H23 lung
TK-10 renal = system: TK-10 renal
BT-549 breast = system: BT-549 breast
KM12 colon = system: KM12 colon
MOLT-4 leukemia = system: MOLT-4 leukemia
SK-OV-3 ovarian = system: SK-OV-3 ovarian
UACC-62 melanoma = system: UACC-62 melanoma
IGROV1 ovarian = system: IGROV1 ovarian
HOP-92 NSCLC = system: HOP-92 NSCLC
U251 glioblastoma = system: U251 glioblastoma
DU-145 prostate = system: DU-145 prostate
HT29 colon = system: HT29 colon
CAKI-1 renal = system: CAKI-1 renal

SMILES: N#C[C@@H]1C(n2ccc(N)nc2=O)O[C@H](CO)[C@H]1O (stereo not given in full)
- GI50 (COLO 205 colon): 2.28 µM
- TGI (COLO 205 colon): 17.7 µM
- GI50 (MDA-MB-468 breast): 0.314 µM
- TGI (MDA-MB-468 breast): 0.824 µM
- GI50 (UACC-257 melanoma): 31.9 µM
- TGI (UACC-257 melanoma): > 100 µM
- GI50 (PC-3 prostate): 36.4 µM
- TGI (PC-3 prostate): > 100 µM
- GI50 (NCI-H460 NSCLC): 0.283 µM
- TGI (NCI-H460 NSCLC): 10.5 µM
- GI50 (OVCAR-3 ovarian): 13.9 µM
- TGI (OVCAR-3 ovarian): > 100 µM
- GI50 (786-0 renal): 0.418 µM
- TGI (786-0 renal): 46.8 µM
- GI50 (SF-295 CNS): 2.22 µM
- TGI (SF-295 CNS): 44.8 µM
- GI50 (HCC-2998 colon): 0.893 µM
- TGI (HCC-2998 colon): 18.4 µM
- GI50 (SNB-75 CNS): 13.8 µM
- TGI (SNB-75 CNS): 85.8 µM
- GI50 (HCT-15 colon): 9.45 µM
- TGI (HCT-15 colon): > 100 µM
- GI50 (SK-MEL-28 melanoma): 2.34 µM
- TGI (SK-MEL-28 melanoma): 9.71 µM
- GI50 (HS 578T breast): 2.01 µM
- TGI (HS 578T breast): > 100 µM
- GI50 (SK-MEL-5 melanoma): 3.52 µM
- TGI (SK-MEL-5 melanoma): 44.4 µM
- GI50 (SNB-19 CNS): 0.849 µM
- TGI (SNB-19 CNS): 47.4 µM
- GI50 (NCI-H23 lung): 0.569 µM
- TGI (NCI-H23 lung): 12.2 µM
- GI50 (TK-10 renal): > 100 µM
- TGI (TK-10 renal): > 100 µM
- GI50 (BT-549 breast): 3.56 µM
- TGI (BT-549 breast): > 100 µM
- GI50 (KM12 colon): 8.14 µM
- TGI (KM12 colon): > 100 µM
- TGI (MOLT-4 leukemia): 0.0141 µM
- GI50 (SK-OV-3 ovarian): 1.32 µM
- TGI (SK-OV-3 ovarian): 21.9 µM
- GI50 (UACC-62 melanoma): 3.35 µM
- TGI (UACC-62 melanoma): 34.4 µM
- GI50 (IGROV1 ovarian): > 100 µM
- TGI (IGROV1 ovarian): > 100 µM
- GI50 (HOP-92 NSCLC): 3.17 µM
- TGI (HOP-92 NSCLC): 93.8 µM
- GI50 (U251 glioblastoma): 3.78 µM
- TGI (U251 glioblastoma): 67.7 µM
- GI50 (DU-145 prostate): 0.54 µM
- TGI (DU-145 prostate): 35.3 µM
- GI50 (HT29 colon): > 100 µM
- TGI (HT29 colon): > 100 µM
- GI50 (CAKI-1 renal): 20 µM
- TGI (CAKI-1 renal): > 100 µM
